In assay [1] the target is Serine/threonine-protein kinase/endoribonuclease IRE2 (Homo sapiens, UniProt Q76MJ5).
Assay [2] concerns the target Calcium/calmodulin-dependent protein kinase type II subunit gamma (Homo sapiens, UniProt Q13555).
In assay [3] the target is Serine/threonine-protein kinase N2 (Homo sapiens, UniProt Q16513).
Assay [4] concerns the target T1, MAP kinase-activated protein kinase 5 (Homo sapiens, UniProt Q8IW41).
T1 sequence (Q8IW41 whole entry): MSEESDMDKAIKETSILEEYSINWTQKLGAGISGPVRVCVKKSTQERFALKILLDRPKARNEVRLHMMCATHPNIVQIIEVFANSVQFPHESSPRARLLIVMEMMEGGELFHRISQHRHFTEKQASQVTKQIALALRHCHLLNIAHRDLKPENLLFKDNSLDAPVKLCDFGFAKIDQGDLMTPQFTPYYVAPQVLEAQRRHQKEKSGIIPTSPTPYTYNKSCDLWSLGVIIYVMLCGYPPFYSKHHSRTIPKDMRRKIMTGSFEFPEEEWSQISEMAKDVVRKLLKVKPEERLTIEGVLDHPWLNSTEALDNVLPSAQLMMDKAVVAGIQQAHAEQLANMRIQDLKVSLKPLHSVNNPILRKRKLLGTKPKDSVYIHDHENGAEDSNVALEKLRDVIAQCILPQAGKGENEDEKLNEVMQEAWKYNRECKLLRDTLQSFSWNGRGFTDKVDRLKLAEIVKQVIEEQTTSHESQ

Assay [5] addresses T2, Non-receptor tyrosine-protein kinase TNK1 (Homo sapiens, UniProt Q13470).
T2 sequence (Q13470 whole entry): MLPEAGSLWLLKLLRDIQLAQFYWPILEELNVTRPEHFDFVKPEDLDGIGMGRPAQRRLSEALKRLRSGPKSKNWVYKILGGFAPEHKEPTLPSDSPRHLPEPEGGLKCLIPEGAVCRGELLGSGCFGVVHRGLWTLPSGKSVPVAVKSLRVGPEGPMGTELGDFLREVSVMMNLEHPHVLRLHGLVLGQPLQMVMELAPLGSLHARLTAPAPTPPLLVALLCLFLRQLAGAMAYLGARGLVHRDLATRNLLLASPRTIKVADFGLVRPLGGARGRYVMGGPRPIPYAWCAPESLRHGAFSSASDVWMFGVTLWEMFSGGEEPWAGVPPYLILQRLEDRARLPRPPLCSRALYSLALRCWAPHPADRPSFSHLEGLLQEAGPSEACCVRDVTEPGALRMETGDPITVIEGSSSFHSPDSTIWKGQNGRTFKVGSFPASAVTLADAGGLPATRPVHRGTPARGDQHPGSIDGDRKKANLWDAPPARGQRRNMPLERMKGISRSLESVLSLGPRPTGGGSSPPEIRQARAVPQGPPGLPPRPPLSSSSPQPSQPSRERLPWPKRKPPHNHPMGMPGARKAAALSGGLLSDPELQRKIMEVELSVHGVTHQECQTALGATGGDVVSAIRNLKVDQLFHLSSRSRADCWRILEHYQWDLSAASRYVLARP

Another assay concerns the target Ephrin type-A receptor 5 (Homo sapiens, UniProt P54756).
Assay [6] has as its target T3, Signal recognition particle receptor subunit alpha (Homo sapiens, UniProt P08240).
T3 sequence (P08240 whole entry): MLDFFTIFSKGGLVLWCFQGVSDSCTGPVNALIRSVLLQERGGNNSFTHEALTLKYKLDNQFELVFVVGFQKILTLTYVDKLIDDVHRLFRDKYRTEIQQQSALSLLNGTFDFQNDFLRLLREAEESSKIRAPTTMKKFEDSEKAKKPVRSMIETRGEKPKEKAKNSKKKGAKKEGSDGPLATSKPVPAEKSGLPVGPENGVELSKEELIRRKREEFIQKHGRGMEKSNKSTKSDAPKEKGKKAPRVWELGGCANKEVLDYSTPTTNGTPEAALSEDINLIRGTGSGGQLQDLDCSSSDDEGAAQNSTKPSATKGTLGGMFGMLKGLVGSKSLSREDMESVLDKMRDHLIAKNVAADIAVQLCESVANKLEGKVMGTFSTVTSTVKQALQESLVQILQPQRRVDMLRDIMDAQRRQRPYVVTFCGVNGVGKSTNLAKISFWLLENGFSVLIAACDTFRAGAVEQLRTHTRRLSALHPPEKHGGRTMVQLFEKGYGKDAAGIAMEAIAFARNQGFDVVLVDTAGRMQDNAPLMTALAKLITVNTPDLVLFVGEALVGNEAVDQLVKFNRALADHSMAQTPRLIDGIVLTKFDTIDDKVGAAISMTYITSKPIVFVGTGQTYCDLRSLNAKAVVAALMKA

Assay [7] has as its target BMP-2-inducible protein kinase (Homo sapiens, UniProt Q9NSY1).
Assay [8] addresses Non-receptor tyrosine-protein kinase TYK2 (Homo sapiens, UniProt P29597).
Assay [9] concerns the target Guanine nucleotide-binding protein G(i) subunit alpha-2 (Homo sapiens, UniProt P04899).
For assay [10], the target named is STE20-like serine/threonine-protein kinase (Homo sapiens, UniProt Q9H2G2).
Assay [11] concerns the target Mitogen-activated protein kinase kinase kinase 20 (Homo sapiens, UniProt Q9NYL2).
The target of assay [12] is Mitogen-activated protein kinase kinase kinase 4 (Homo sapiens, UniProt Q9Y6R4).
For another assay, the target named is Ephrin type-A receptor 2 (Homo sapiens, UniProt P29317).

SMILES strings stand for the structures. Active and inactive are the calls of the source. For most assays here, no stated cut-off is given here; in the data, actives have a measured Kd and inactives only a lower limit.

Chain of Serine/threonine-protein kinase N2 (Q16513 whole entry): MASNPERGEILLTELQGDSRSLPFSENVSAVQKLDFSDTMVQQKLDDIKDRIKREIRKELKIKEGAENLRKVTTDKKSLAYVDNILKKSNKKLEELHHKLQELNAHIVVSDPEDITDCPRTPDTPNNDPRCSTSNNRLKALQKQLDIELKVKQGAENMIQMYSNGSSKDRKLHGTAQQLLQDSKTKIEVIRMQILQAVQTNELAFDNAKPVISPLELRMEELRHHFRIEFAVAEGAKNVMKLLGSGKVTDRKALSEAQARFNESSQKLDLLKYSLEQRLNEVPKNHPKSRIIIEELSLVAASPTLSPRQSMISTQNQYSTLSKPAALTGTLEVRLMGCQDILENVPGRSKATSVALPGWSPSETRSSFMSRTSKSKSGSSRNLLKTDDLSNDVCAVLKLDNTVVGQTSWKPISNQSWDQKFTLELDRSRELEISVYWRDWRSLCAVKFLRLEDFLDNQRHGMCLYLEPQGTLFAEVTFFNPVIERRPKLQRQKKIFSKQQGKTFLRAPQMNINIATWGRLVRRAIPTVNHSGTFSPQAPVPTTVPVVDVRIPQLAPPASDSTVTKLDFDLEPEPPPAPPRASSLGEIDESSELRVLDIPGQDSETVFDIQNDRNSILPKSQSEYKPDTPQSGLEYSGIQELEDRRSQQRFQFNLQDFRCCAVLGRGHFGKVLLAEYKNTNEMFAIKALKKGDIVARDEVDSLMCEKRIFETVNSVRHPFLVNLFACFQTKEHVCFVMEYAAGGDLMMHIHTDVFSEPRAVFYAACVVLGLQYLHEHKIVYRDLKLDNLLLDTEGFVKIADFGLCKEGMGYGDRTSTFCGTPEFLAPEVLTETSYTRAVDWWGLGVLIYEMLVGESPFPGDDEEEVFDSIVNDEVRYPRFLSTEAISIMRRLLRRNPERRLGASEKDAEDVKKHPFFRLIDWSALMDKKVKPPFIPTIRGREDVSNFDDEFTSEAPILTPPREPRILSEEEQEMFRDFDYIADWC
Chain of Non-receptor tyrosine-protein kinase TYK2 (P29597 whole entry): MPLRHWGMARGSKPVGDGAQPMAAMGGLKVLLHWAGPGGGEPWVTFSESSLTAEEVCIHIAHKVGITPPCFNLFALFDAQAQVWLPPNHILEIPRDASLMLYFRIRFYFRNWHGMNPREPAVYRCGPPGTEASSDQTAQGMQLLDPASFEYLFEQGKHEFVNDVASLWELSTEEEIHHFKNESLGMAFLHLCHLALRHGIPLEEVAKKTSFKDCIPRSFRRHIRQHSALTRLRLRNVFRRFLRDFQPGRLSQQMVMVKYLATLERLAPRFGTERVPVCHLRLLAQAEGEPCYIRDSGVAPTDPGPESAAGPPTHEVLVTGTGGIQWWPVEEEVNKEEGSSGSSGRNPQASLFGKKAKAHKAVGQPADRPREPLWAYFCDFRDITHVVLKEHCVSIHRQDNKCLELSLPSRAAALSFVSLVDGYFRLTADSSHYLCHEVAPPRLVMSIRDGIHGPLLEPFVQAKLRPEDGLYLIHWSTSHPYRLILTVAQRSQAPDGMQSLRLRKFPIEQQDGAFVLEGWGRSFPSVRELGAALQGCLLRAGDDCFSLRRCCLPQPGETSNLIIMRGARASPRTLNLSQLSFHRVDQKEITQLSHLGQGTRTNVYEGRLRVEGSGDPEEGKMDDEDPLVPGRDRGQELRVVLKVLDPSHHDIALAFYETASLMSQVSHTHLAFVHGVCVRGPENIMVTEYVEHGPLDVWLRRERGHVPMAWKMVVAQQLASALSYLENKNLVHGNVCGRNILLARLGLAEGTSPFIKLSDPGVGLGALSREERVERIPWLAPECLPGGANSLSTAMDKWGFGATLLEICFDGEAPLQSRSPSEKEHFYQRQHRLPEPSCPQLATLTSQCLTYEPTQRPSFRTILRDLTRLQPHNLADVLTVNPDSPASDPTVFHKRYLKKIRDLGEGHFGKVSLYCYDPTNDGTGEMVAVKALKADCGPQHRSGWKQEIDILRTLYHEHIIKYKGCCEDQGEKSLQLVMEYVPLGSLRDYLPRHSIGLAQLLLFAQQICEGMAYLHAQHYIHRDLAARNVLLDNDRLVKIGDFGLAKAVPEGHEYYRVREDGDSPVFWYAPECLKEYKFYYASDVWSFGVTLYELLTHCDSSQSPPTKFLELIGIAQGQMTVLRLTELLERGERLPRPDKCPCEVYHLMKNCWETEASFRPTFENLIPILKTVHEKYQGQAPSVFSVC
Chain of Ephrin type-A receptor 5 (P54756 whole entry): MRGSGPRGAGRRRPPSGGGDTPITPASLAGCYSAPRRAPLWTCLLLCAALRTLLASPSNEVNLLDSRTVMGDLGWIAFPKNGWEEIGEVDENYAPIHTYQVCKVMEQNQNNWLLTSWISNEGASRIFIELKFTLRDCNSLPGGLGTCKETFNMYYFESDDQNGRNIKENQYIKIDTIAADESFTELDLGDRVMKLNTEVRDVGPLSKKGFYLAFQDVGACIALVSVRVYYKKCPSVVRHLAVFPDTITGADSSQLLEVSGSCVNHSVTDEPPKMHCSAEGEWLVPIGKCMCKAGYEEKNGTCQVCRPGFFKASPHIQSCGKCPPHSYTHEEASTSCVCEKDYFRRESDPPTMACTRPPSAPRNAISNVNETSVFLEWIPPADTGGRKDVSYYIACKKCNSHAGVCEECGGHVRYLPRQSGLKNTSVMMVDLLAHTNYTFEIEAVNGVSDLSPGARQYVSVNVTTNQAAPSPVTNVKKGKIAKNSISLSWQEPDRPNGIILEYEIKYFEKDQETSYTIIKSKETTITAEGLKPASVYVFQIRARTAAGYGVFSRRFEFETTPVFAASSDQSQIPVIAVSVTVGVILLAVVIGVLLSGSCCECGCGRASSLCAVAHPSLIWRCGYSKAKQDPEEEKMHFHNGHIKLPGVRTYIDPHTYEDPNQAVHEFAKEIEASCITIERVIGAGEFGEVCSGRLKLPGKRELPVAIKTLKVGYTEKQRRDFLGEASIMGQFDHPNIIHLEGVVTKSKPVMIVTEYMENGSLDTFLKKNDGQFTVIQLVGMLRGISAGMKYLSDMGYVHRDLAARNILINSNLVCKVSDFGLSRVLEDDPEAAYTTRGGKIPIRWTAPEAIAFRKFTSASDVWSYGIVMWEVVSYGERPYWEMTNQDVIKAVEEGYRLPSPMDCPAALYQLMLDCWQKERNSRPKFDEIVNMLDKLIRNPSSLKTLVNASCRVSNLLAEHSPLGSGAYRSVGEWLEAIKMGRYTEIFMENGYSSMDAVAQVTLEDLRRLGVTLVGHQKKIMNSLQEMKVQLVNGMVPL
Chain of Mitogen-activated protein kinase kinase kinase 20 (Q9NYL2 whole entry): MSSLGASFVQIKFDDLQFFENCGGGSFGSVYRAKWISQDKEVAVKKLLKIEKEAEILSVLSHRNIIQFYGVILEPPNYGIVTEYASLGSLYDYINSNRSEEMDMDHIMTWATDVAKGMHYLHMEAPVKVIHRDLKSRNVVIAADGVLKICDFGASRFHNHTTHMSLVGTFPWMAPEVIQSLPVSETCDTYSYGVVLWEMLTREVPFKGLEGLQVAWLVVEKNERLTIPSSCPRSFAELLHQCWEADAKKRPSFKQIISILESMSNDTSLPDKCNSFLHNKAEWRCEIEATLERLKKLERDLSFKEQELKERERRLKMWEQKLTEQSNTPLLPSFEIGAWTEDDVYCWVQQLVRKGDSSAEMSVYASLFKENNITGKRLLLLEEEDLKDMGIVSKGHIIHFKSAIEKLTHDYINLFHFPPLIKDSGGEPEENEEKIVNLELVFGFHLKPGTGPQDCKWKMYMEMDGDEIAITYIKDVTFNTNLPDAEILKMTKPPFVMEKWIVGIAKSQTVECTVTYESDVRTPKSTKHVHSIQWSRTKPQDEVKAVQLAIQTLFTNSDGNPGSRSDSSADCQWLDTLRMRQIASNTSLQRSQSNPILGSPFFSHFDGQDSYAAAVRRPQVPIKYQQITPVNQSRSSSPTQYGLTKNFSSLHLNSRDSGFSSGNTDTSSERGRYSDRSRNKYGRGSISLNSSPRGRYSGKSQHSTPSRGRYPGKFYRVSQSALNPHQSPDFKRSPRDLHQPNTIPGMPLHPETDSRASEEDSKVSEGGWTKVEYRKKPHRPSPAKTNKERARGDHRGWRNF
Chain of Calcium/calmodulin-dependent protein kinase type II subunit gamma (Q13555 whole entry): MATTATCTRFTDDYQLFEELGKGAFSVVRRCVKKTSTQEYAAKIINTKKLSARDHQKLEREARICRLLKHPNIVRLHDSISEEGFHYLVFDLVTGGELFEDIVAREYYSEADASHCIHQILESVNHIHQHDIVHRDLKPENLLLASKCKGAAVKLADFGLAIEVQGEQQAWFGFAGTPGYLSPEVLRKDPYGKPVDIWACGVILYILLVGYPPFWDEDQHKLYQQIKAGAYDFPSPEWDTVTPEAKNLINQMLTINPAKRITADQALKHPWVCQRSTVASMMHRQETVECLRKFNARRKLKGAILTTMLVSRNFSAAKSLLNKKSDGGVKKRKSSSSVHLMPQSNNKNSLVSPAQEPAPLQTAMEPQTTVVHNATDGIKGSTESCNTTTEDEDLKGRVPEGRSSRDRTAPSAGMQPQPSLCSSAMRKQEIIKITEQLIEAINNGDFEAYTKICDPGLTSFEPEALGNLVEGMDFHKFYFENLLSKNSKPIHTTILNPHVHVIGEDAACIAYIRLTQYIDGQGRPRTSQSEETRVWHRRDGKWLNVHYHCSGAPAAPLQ
Chain of Guanine nucleotide-binding protein G(i) subunit alpha-2 (P04899 whole entry): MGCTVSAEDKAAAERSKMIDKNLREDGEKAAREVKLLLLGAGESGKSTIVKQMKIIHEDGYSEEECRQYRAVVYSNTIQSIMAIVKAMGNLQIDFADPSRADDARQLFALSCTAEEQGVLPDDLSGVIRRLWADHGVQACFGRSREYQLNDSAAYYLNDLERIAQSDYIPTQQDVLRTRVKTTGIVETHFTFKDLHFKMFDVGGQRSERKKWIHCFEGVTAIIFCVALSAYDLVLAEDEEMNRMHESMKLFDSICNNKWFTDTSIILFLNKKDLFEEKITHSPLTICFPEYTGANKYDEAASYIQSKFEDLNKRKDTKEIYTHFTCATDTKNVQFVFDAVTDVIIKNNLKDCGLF

The Kd is the equilibrium constant for the complex coming apart. Take `S=C(NCc1ccc2c(c1)OCO2)N1CCN(c2ncnc3c2oc2ccccc23)CC1` [AMUVATINIB]: the Kd (in assay [1]; in assay [2]; in assay [3]; in assay [4]; in assay [5]; on Ephrin type-A receptor 5) was > 30 µM (inactive) each time. The Kd in [6], in assay [7], in assay [8], in assay [9], in assay [10] and in [11] was > 30 µM (inactive) throughout. The Kd (in [12]; at Ephrin type-A receptor 2) was > 30 µM (inactive) throughout.
With `O[C@H]1CC[C@H](Nc2ncc3nc(Nc4c(F)cc(F)cc4F)n([C@H]4CCOC4)c3n2)CC1` [TANZISERTIB], the Kd (in [1]; in [2]; in [3]; in assay [4]; in assay [5]; at Ephrin type-A receptor 5) was > 30 µM (inactive) each time. Moreover, the Kd in [7], in assay [8], in [9], in assay [10], in assay [11] and in [12] was > 30 µM (inactive) in each case. For the same molecule, at Ephrin type-A receptor 2, the Kd is > 30 µM (inactive).
`Cn1c(=O)n(-c2ccc(C(C)(C)C#N)cc2)c2c3cc(-c4cnc5ccccc5c4)ccc3ncc21` [DACTOLISIB]: the Kd (in assay [1]; in [2]; in [4]; in assay [5]; on Ephrin type-A receptor 5; in [6]) was > 30 µM (inactive) in each case. The Kd in [7], in assay [8], in assay [9], in [10], in assay [11] and in assay [12] was > 30 µM (inactive) each time. For the same molecule, the Kd at Ephrin type-A receptor 2 was > 30 µM (inactive).
In the case of `C[C@@]1(C(=O)Nc2ccc(F)nc2)CCCN1c1nc(Nc2cc(C3CC3)n[nH]2)c2cccn2n1` [BMS-754807], the Kd in assay [6] and in [9] was > 30 µM (inactive) throughout.
As for `CN(c1ncccc1CNc1nc(Nc2ccc3c(c2)CC(=O)N3)ncc1C(F)(F)F)S(C)(=O)=O` [PF-00562271], the Kd (in assay [1]; in assay [5]; on Ephrin type-A receptor 5; in assay [6]; in [9]; in assay [12]) was > 30 µM (inactive) in each case.
Consider `N#CCNC(=O)c1ccc(-c2ccnc(Nc3ccc(N4CCOCC4)cc3)n2)cc1` [MOMELOTINIB], for which the Kd (in assay [1]; in [3]; in assay [4]; in assay [5]; at Ephrin type-A receptor 5; in assay [6]) was > 30 µM (inactive) in each case. For the same molecule, the Kd (in assay [9]; in assay [12]; at Ephrin type-A receptor 2) was > 30 µM (inactive) throughout.
In the case of `COc1cc2c(Oc3ccc4[nH]c(C)cc4c3F)ncnc2cc1OCCCN1CCCC1` [CEDIRANIB], the Kd in [1] and in assay [6] was > 30 µM (inactive) in each case.
In the case of `CCN1CCN(Cc2ccc(Nc3ncc(F)c(-c4cc(F)c5nc(C)n(C(C)C)c5c4)n3)nc2)CC1` [ABEMACICLIB], the Kd in [1] was > 30 µM (inactive); in assay [2] it was 0.018 µM (active); in assay [3] it was > 30 µM (inactive); in assay [4] it was > 30 µM (inactive); in assay [5] it was > 30 µM (inactive); at Ephrin type-A receptor 5, > 30 µM (inactive). In addition, the Kd in assay [6] is > 30 µM (inactive); in assay [7], 56 µM (active); in [8], > 30 µM (inactive); in assay [9], > 30 µM (inactive); in assay [10], > 30 µM (inactive); in assay [11], > 30 µM (inactive). Also, the Kd (in [12]; on Ephrin type-A receptor 2) was > 30 µM (inactive) each time.
For `Cn1cnc2c(F)c(Nc3ccc(Br)cc3Cl)c(C(=O)NOCCO)cc21` [SELUMETINIB], the Kd in assay [1], in assay [6] and in assay [9] was > 30 µM (inactive) each time.
As to `COc1cc2c(N3CCN(C(=O)Nc4ccc(OC(C)C)cc4)CC3)ncnc2cc1OCCCN1CCCCC1` [TANDUTINIB], the Kd in assay [1] and in assay [6] was > 30 µM (inactive) each time.
Consider `NC(=O)c1ccc(N(C(N)=O)c2c(F)cccc2F)nc1-c1ccc(F)cc1F` [VX-702], for which the Kd (in assay [1]; in [2]; in assay [3]; in assay [4]; in assay [5]; at Ephrin type-A receptor 5) was > 30 µM (inactive) each time. For the same molecule, the Kd in assay [6], in assay [7], in assay [8], in [9], in [10] and in assay [11] was > 30 µM (inactive) in each case. In addition, the Kd (in [12]; on Ephrin type-A receptor 2) was > 30 µM (inactive) each time.
For the molecule `CCN(CCCOc1ccc2c(Nc3cc(CC(=O)Nc4cccc(F)c4)n[nH]3)ncnc2c1)CCOP(=O)(O)O` [BARASERTIB], the Kd (in assay [1]; in assay [2]; in assay [3]; in assay [4]; in assay [5]; on Ephrin type-A receptor 5) was > 30 µM (inactive) in each case. The Kd in [7], in [8], in assay [9], in assay [10], in assay [11] and in assay [12] was > 30 µM (inactive) in each case. Besides, at Ephrin type-A receptor 2, the Kd is > 30 µM (inactive).
`CC1(C)CNc2cc(NC(=O)c3cccnc3NCc3ccncc3)ccc21` [MOTESANIB]: the Kd in assay [1], in assay [6], in assay [9] and in assay [10] was > 30 µM (inactive) throughout.
For `CN(C)C/C=C/C(=O)Nc1cc2c(Nc3ccc(F)c(Cl)c3)ncnc2cc1O[C@H]1CCOC1` [AFATINIB], the Kd in [1], in assay [6] and in assay [9] was > 30 µM (inactive) each time.

Values taken from ChEMBL document CHEMBL3991601, “The target landscape of clinical kinase drugs” (Science, 2017).
